# According to patent US7655662B2, “(Indazol-5-yl)-pyrazines and (1,3-dihydro-indol-2-one)-pyrazines for treating glaucoma and controlling intraocular pressure” (Alcon Research, Ltd., priority 2005, dated 2010):
# Counter-ions that a name gives are not always drawn.
# Target: T1, Human recombinant Rho kinase (ROKα/ROCK-II, (aa 11-552)) (Homo sapiens, UniProt O75116)
# T1 construct: Human recombinant Rho kinase (ROKα/ROCK-II, (aa 11-552), human active); purchased Upstate Biotechnology Co., Lake Placid, N.Y. 14-451
# T1 sequence (O75116 11-552): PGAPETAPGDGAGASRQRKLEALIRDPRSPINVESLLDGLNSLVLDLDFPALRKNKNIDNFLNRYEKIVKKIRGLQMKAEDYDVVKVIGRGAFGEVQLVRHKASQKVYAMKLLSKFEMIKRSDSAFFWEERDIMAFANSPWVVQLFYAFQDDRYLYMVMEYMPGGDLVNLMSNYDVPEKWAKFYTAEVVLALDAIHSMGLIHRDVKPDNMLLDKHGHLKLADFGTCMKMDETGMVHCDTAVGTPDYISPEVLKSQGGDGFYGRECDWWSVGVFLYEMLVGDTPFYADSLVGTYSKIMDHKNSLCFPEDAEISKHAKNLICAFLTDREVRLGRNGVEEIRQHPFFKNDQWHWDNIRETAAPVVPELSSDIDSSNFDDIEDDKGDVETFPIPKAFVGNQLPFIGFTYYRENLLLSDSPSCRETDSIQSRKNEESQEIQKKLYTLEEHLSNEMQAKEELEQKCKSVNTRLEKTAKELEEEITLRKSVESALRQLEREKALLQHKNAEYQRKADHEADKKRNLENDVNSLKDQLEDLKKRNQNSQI
# Experiment: Rho kinase II (ROCK II) IMAP fluorescence polarization inhibition assay
# Type: biochemical
# Details: IMAP ROCK II kit; substrate 200 nM, ATP 10 μM; 60 min at 23° C.; read-out: Rho kinase II Binding Data IC50
# Procedure: The ability of certain compounds of Formula (I) to inhibit rho kinase is evaluated by means of in vitro assays. Human recombinant Rho kinase (ROKα/ROCK-II, (aa 11-552), human active, catalog #14-451, Upstate Biotechnology Co., Lake Placid, N.Y.), MgCl2/ATP cocktail, and enzyme substrate (Upstate) is used.
# Fluorescence polarization assays are performed using a Biomek 2000 Robotic Workstation (Beckman Instruments, Palo Alto, Calif.) in a 96-well plate format. The assays are performed utilizing the IMAP ROCK II kit (Molecular Devices, Sunnyvale, Calif.) as follows. Substrate and ATP concentrations used are 200 nM and 10 μM, respectively, while the enzyme concentration is 3.96×10^−3 units per well. The substrate, enzyme, and ATP dilutions are made with the reaction buffer provided by the vendor. Test compounds are diluted in 10:10 DMSO-ethanol (vol/vol). For the actual assays, the various components are added into black, clear bottom, 96-well plates (Costar, Corning, N.Y.) in a final volume of 20 μl per well. After the enzyme reaction (60 min at 23° C.), 60 μl of the binding solution (IMAP kit, provided by vendor) is added per well and incubated for an additional 30 minutes in the dark at 23° C. Fluorescence polarization of the reaction mixtures is then measured on the Analyst™ HT instrument (Molecular Devices, Sunnyvale, Calif.).
# The data generated are then analyzed using a non-linear, iterative, sigmoidal-fit computer program purchased from IDBS (Emeryville, Calif.) and as previously described (Sharif et al., J Pharmacol. Exp. Ther. 286:1094-1102, 1998; Sharif et al., J Pharmacol. Expt. Ther. 293:321-328, 2000; Sharif et al., J Ocular Pharmacol. Ther. 18:141-162, 2002a; Sharif et al., J Pharmac. Pharmacol. 54:539-547, 2002b) to generate the inhibition constants for the test compounds.
row,IC50 [nM],Compound
1,57,"Cc1n[nH]c2ccc(-c3cncc(NC[C@@H](N)Cc4ccccc4)n3)cc12 (single isomer, unassigned) [Example 2]"
2,590,Cc1n[nH]c2ccc(-c3cncc(NCC(N)Cc4cc5ccccc5[nH]4)n3)cc12 (stereo not drawn) [Example 3]
3,190,"Cc1n[nH]c2ccc(-c3cncc(NC[C@@H](N)Cc4ccccc4)n3)cc12 [Example 1, (S)-N^1-[6-(3-Methyl-1H-indazole-5-yl)-pyrazin-2-yl]-3-phenyl-propane-1,2-diamine dihydrochloride]"
